Values joined by “and” are separate entries in the source; they are usually repeats but may differ in a detail not shown here. Equal entries are not always repeated. Where two headings read alike, the source gives them in different places.
Assays:
[1] = Precipitation / turbidity of compound in assay buffer (600 nm); format: physicochemical; details: aqueous assay buffer
Procedure: 1.3 µL of derivatives of 4-phenylthiazol-2-amine in 100% DMSO were mixed with 237.7 µL of a mastermix of WT PfMDH previously incubated with NAD+. The final compound concentration used in this screening was 500 µM in the presence of 0.5% (v/v) DMSO. The microplate was sealed with silver foil for 1-h incubation at 25–35 °C. Finally, reactions in both the samples and control wells were started upon the addition of 13.0 µL of 5 mM malate). At the end of the experiments, the reaction of the plate was spectrophotometrically assayed at 600 nm in order to identify turbidity due to the low solubility of the compound. All measurements were performed in duplicate.

[2] = target: T1, PfMDH (Plasmodium falciparum, UniProt Q6VVP7); assay: Kinetics experiment with varying L-malate, substrate inhibition model; format: biochemical; set-up: unit not given here; details: malate 5 mM, replicates
T1 construct: The full-length WT PfMDH gene was cloned into pETM-13; made in house; host or cells: E. coli Rosetta 2 (DE3) pLysS
Procedure: (§1) The oxidation of malate to oxaloacetate was assayed spectrophotometrically in flat-bottomed Corning 96-well microplates in a total volume of 250.0 µl in 50 mM glycine buffer pH 10.2[24] with an additional 400 mM NaCl for protein stability. The increase of absorbance at 340 nm was recorded in kinetic mode using a Tecan Spark multimode microplate reader at 298 K. A mastermix of 50 mM NAD+ and 44 μM PfMDH was used for both the screening and kinetics experiments. The final concentration of protein and cofactor were […], respectively. Positive control groups were set (absence of compound) in the same plate as the treated group. The absorbance from the background noise was subtracted from the data and then a linear regression model was employed in order to get the line slope from the first 5 min of the reaction. The percentage of enzymatic activity has been calculated as described by Eq. (1)1 enzymeactivity(%)=slopetreated/slopepositivecontrol*100
Kinetics experiments were performed by mixing 1.3 µL of compound stock solutions from 12.5 and 25 mM of 4PA in 100% DMSO with 223.8 µL mastermix of PfMDH previously incubated in ice with 3 mM NAD+ for 30 min. […] Kinetic constants Km (mM) and Vmax (U * mg^−^1) and Ki (mM) were quantified with GraphPad Prism version 8.0 according to the substrate inhibition Eq. (2)[52].2 Y=Vmax*X/(Km+X^*(1+X/Ki))

[3] = target: T2, WT PfMDH (Plasmodium falciparum, UniProt Q6VVP7); assay: 4PA dose-response inhibition of PfMDH; format: biochemical; details: for Slope / Response (Delta Abs[340 nm]/min): replicates
T2 construct: The full-length WT PfMDH gene was cloned into pETM-13; made in house; host or cells: E. coli Rosetta 2 (DE3) pLysS
Procedure: as §1
While the fragment initially discovered was 4-(3,4-difluorophenyl) thiazol-2-amine, we decided to perform enzymatic and kinetic assays using a similar substructure 4-phenylthiazol-2-amine. 2× fold dilutions from a 200 mM stock solution of the compound in 100% DMSO was prepared for dose–response experiments. 3.3 µL of compound (DMSO in the case of positive control) were mixed with 233.9 µL mastermix of WT PfMDH previously incubated with 3 mM NAD + using a multichannel pipette. The final conditions tested were a maximum of 2.5 mM of 4PA at 1.32% (v/v) final DMSO concentration. The microplate was incubated for 15 min at 25.35 °C and the reaction started with the addition of 13.0 µL of 5 mM L-malate.

T1 sequence (Q6VVP7 entry or part of it): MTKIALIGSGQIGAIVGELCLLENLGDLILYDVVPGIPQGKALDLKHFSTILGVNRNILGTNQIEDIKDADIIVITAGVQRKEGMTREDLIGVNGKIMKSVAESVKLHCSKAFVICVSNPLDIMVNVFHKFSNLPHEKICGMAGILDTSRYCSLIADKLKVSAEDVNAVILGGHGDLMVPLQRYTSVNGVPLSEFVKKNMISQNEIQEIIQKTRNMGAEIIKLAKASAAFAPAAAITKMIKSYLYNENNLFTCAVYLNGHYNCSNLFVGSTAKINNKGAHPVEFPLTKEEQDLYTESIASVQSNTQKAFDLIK
T2 sequence (Q6VVP7 entry or part of it): as above

Nc1nc(-c2ccccc2)cs1 [4PA, 4-phenylthiazol-2-amine]
solubility (in words) [1]: slightly more soluble than 4DT
4PA kinetics raw data (rate) ([2]; PfMDH + 63 uM): 0.0233 and 0.02526 and 0.02238
4PA kinetics raw data (rate) ([2]; PfMDH + 125 uM): 0.01868 and 0.01853 and 0.02184
IC50 ([3]; 5 mM L-malate, 3 mM NAD+, pH 10.2, read-out: IC50): 1.12 ± 0.03 mM
Slope ([3]; Dose 1e-6 M): 0.04587 and 0.04675 and 0.04799
Slope ([3]; Dose 0.000237161 M): 0.03425 and 0.02991 and 0.02497
Slope ([3]; Dose 0.000332026 M): 0.03311 and 0.03278 and 0.02964
Slope ([3]; Dose 0.000464836 M): 0.03179 and 0.02952 and 0.02569
Slope ([3]; Dose 0.000650771 M): 0.0287 and 0.02683 and 0.02888
Slope ([3]; Dose 0.000911079 M): 0.02984 and 0.02623 and 0.02457
Slope ([3]; Dose 0.00127551 M): 0.01897 and 0.02591 and 0.01942
Slope ([3]; Dose 0.00178571 M): 0.01091 and 0.01205 and 0.0179
Slope ([3]; Dose 0.0025 M): 0.01337 and 0.01172 and 0.009871
Response (Delta Abs[340 nm]/min) ([3]; Dose 1.00E-06 M): 4.59E-02 Delta Abs[340 nm]/min and 4.67E-02 Delta Abs[340 nm]/min and 4.80E-02 Delta Abs[340 nm]/min
Response (Delta Abs[340 nm]/min) ([3]; Dose 1.28E-03 M): 1.90E-02 Delta Abs[340 nm]/min and 2.59E-02 Delta Abs[340 nm]/min and 1.94E-02 Delta Abs[340 nm]/min
Response (Delta Abs[340 nm]/min) ([3]; Dose 1.79E-03 M): 1.09E-02 Delta Abs[340 nm]/min and 1.20E-02 Delta Abs[340 nm]/min and 1.79E-02 Delta Abs[340 nm]/min
Response (Delta Abs[340 nm]/min) ([3]; Dose 2.37E-04 M): 3.43E-02 Delta Abs[340 nm]/min and 2.99E-02 Delta Abs[340 nm]/min and 2.50E-02 Delta Abs[340 nm]/min
Response (Delta Abs[340 nm]/min) ([3]; Dose 2.50E-03 M): 1.34E-02 Delta Abs[340 nm]/min and 1.17E-02 Delta Abs[340 nm]/min and 9.87E-03 Delta Abs[340 nm]/min
Response (Delta Abs[340 nm]/min) ([3]; Dose 3.32E-04 M): 3.31E-02 Delta Abs[340 nm]/min and 3.28E-02 Delta Abs[340 nm]/min and 2.96E-02 Delta Abs[340 nm]/min
Response (Delta Abs[340 nm]/min) ([3]; Dose 4.65E-04 M): 3.18E-02 Delta Abs[340 nm]/min and 2.95E-02 Delta Abs[340 nm]/min and 2.57E-02 Delta Abs[340 nm]/min
Response (Delta Abs[340 nm]/min) ([3]; Dose 6.51E-04 M): 2.87E-02 Delta Abs[340 nm]/min and 2.68E-02 Delta Abs[340 nm]/min and 2.89E-02 Delta Abs[340 nm]/min
Response (Delta Abs[340 nm]/min) ([3]; Dose 9.11E-04 M): 2.98E-02 Delta Abs[340 nm]/min and 2.62E-02 Delta Abs[340 nm]/min and 2.46E-02 Delta Abs[340 nm]/min
LogIC50 (best-fit value) ([3]; log(inhibitor) vs. normalized response, variable slope): -2.934 and -2.922
IC50 ([3]; log(inhibitor) vs. normalized response, variable slope, read-out: IC50 (best-fit value)): 1.16 mM and 1.2 mM

— paper PMC8355244, “A fragment-based approach identifies an allosteric pocket that impacts malate dehydrogenase activity” (Communications Biology, 2021)
